# Assay results reported in publication PMC4942611, “Promising Tools in Prostate Cancer Research: Selective Non-Steroidal Cytochrome P450 17A1 Inhibitors” (Scientific Reports, 2016).
# Legend:
# [1] = biological target: T1, human CYP17A1 (Homo sapiens, UniProt P05093); experiment: Progesterone 17α-hydroxylase inhibition with purified CYP17A1; assay type: biochemical; details: for IC50: conversion of PRO to 17-OH-PRO, 10 μM progesterone, mean over 3 measurements ± standard error
# T1 construct: bearing a truncation of the N-terminal helix; made in house
# T1 sequence (P05093 with tags, fused parts or gaps limits assumed): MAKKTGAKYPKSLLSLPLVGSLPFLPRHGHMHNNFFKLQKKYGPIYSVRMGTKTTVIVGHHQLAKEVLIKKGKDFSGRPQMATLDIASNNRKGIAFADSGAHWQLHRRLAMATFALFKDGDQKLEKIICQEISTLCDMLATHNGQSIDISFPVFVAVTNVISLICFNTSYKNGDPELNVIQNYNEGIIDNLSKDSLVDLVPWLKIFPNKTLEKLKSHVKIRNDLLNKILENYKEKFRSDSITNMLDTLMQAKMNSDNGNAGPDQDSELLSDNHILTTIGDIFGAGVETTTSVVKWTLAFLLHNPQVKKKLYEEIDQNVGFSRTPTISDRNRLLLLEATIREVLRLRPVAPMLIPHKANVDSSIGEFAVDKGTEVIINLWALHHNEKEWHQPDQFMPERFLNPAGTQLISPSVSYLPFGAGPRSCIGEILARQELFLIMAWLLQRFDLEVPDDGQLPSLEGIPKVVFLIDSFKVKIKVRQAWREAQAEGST
# Description: Purified cytochrome P450 17A1 (50 nmol) was incubated with truncated human cytochrome P450 reductase[48] and rat cytochrome b5 in a 1:4:0 or 1:4:4 ratio for hydroxylase and 17,20-lyase reactions, respectively. […] Reactions were initiated upon addition of 25 mM NADPH as the electron source. The hydroxylated product was quantified after HPLC using an UV detector and analyzed as previously published. The 17,20-lyase assay was performed similarly substituting 1.2 μM of 17α-hydroxypregnenolone as the substrate and inhibitor concentrations of 0–500 nM. The dehydroepiandrosterone product was quantitated using a coupled GC/MS method.
# [2] = biological target: T2, CYP21A2 (Homo sapiens, UniProt P08686); experiment: H295R cell assay, CYP21A2 activity; assay type: cell-based; details: H295R cells
# T2 sequence (P08686 1-495): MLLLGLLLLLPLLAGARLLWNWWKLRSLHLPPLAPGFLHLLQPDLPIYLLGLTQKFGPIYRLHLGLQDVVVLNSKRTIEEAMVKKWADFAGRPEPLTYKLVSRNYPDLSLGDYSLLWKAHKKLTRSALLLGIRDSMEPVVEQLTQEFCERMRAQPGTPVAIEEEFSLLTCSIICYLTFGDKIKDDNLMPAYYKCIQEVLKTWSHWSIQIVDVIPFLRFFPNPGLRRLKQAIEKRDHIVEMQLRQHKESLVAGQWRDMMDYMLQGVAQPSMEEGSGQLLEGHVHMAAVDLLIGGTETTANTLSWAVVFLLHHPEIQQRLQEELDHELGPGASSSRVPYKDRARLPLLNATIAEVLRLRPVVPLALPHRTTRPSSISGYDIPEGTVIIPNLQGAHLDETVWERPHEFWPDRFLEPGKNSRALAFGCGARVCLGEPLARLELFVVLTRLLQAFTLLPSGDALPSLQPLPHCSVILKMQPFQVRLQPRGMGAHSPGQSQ
# Description: This cellular assay was also used to evaluate inhibitor selectivity.
# The H295R steroid hormone synthesis assay was performed according to the OECD validation guideline. Cells were cultured in DMEM/F12 media supplemented with 1% ITS-premix and 2.5% Nu-serum at 37 °C with a 5% CO2 atmosphere. The cells were only used for experiments between passage […]. During exposure experiments, cells were grown in 24 well plates with a density of 3 × 10^5 cells/mL. […] To avoid interference from low levels of steroid hormones present in the Nu-serum, the exposure experiment was conducted with serum-free media. Each compound was tested at a minimum of seven concentration levels using three or more replicates and the experiment was repeated on two different days (n = 6–15). On each test plate a solvent control (SC) (medium with 0.1% DMSO) was included in triplicate and the maximal concentration of DMSO in the cell medium was 0.1%[49]. After 48 hours of incubation in presence of the test compounds, 950 μL of the medium was carefully removed and internal standards (50 μl of 0.1 μg/μl solution containing deuterated steroid analogues) were added. Samples were stored at −20 °C for later analysis.
SMILES,IC50 [1],Potency for 17α-hydroxylase inhibition relative to abiraterone (times less potent) ([1]; recombinant human CYP17A1),Inhibitor concentrations at which CYP21A2 is inhibited [2]
Cc1ccc(-c2csc(-c3cccnc3)n2)c(C)c1 [Compound 1],230 ± 20 nM,2–3 times,greater than 1000 nM
CCCn1nnc2cc(-c3cc(-c4ccncc4)c(C#N)c(N)n3)ccc21 [Compound 2],130 ± 10 nM,,above 1000 nM
"C[C@]12CC[C@H](O)CC1=CC[C@@H]1[C@@H]2CC[C@]2(C)C(c3cccnc3)=CC[C@@H]12 [abiraterone, reference compound]",92 ± 4 nM,,30 to 3000 nM
